In US20260274798A1, “PENTAMIDINE ANALOGUE POLYMORPHS, FORMULATIONS, AND METHODS THEREOF” (AURANSA INC., priority 2023, published 2026):
“Also recorded” adds a separate entry of the source.

Columns and labels:
Assay type in all cases: physicochemical
[1] = Approximate solvent solubility screen of Compound A diacetate salt in 18 solvent systems; conditions: thermodynamic from solid
Protocol: Approximately 380 mg of Form 1 was dissolved in 35 mL of methanol and rotary evaporated. […] A sub-sample was taken for further characterization (TG/DSC, ^1H NMR and PLM). The crystalline material isolated post rotary-evaporation was re-dissolved in 27 mL of water. The solution remained slightly turbid so was syringe filtered to give a clear solution which was split equally among 18 vials to give approximately 20 mg of material per vial. The samples were then frozen at −50° C. before being lyophilized for ca. 72 hours. […] This material was used as input for the solvent solubility screen described below.
The solubility of Compound A diacetate salt was tested in 18 solvent systems. The appropriate solvent was added in 100 μL aliquots to approximately 20 mg of the lyophilized Compound A diacetate salt. Between each addition, the mixture was checked for dissolution and where no dissolution was apparent, the mixture was heated to ca. 40° C. and checked again. This procedure was continued until dissolution was observed or until 100 volumes of solvent had been added.
The solids were then isolated via centrifugal filtration and analyzed by XRPD. If the samples fully dissolved on addition of solvent (methanol and water only), they were uncapped and left to evaporate at ambient. Any solids recovered post-evaporation were then analyzed by XRPD.

[2] = Thermodynamic solubility in water and a pH 7.4 phosphate buffer; conditions: slurry agitated at ambient ca. 24 hours, HPLC; for solubility: diacetate; for solubility at 24 h: thermodynamic from solid
Protocol: (§1) 25.6 mL of 2-propanol was added to the lyophilized Compound A diacetate salt to form a slurry. The slurry was then temperature cycled between ambient and 40° C. in 4 hour cycles with agitation for ca. 24 hours. The slurry was then filtered and the isolated solids collected into a scintillation vial. A subsample was analyzed by XRPD and the vial was left uncapped to allow the solids to […] at ambient for ca. 24 hours. The material was then re-analyzed by XRPD post-drying and fully characterized using the following techniques: TG/DSC, DSC, DVS with post-DVS XRPD analysis, PLM, FT-IR, ^1H NMR, Purity by HPLC, TG/DSC with post TG/DSC XRPD analysis, and 7 Day Stability Assessment (ca. 10 mg of the material was stored at 40° C./75% RH. 80° C. and ambient light and humidity for 1 week. The solids were then analyzed by XRPD and purity obtained by HPLC). Thermodynamic solubility in water and a pH 7.4 phosphate buffer (The appropriate media was added in 100 μL aliquots to ca. 20 mg of the material to form a slurry. The samples were then sealed and agitated at ambient for ca. 24 hours before being centrifuge filtered. The isolated solids were analyzed by XRPD and the concentration of the mother liquors determined by HPLC).
The material appears highly insoluble in the phosphate buffer with all Forms having a solubility of 0.3 mg/mL except from Form 2 which has a solubility of 0.2 mg/mL.

[3] = Dynamic vapour sorption (DVS) with post-DVS XRPD; conditions: for form of recovered solid by post-DVS XRPD: after DVS cycles
Protocol: Approximately, 10-20 mg of sample was placed into a mesh vapour sorption balance pan and loaded into a DVS Intrinsic dynamic vapour sorption balance by Surface Measurement Systems. The sample was subjected to a ramping profile from 40-90% relative humidity (RH) at 10% increments, maintaining the sample at each step until a stable weight had been achieved (dm/dt 0.004%, minimum step length 30 minutes, maximum step length 500 minutes) at 25° C. After completion of the sorption cycle, the sample was dried using the same procedure to 0% RH and then a second sorption cycle back to 40% RH. Two cycles were performed. The weight change during the sorption/desorption cycles were plotted, allowing for the hygroscopic nature of the sample to be determined. XRPD analysis was then carried out on any solid retained.

[4] = 7 Day Stability Assessment (XRPD form and HPLC purity after storage); conditions: diacetate; for one-week stability: form by XRPD: 1 week (Form 1: 2 and 7 days)
Protocol: as §1

[5] = Competitive slurry experiments of Forms 1, 3, 8 and 9
Protocol: Approximately 5 mg of Compound A diacetate salt Forms 1, 3, 8 and 9 were combined into 8×4 mL vials. The appropriate solvent was added to form a slurry and the samples were shaken at ambient or 60° C. for ca. 48 hours. The samples were then removed from shaking and centrifuge filtered. […] The solids were recovered from the XRPD plate and placed back on to shake as before for an additional 3 days before being re-analyzed by XRPD. […]

[6] = ambient temperature and humidity
[7] = Ethyl Acetate, 2000 μL, Ambient

Structure (SMILES): CC(=O)O.CC(=O)O.N=C(N)c1ccc(OCCCCCOc2ccc(C(=N)N)nc2)cc1 [Compound A diacetate salt, 5-((5-(4-carbamimidoylphenoxy)pentyl)oxy)picolinimidamide diacetate]
- solubility ([1]; all solvents investigated except methanol and water, organic solvent or mixture, read-out: solubility): < 5 mg/mL
- solubility ([1]; organic solvent or mixture, 1,4-Dioxane, lyophilized material, ambient to ca. 40° C., read-out: Approximate Solvent Solubility): ≤ 5 mg/mL
- solubility ([1]; organic solvent or mixture, 2-Propanol, lyophilized material, ambient to ca. 40° C., read-out: Approximate Solvent Solubility): ≤ 5 mg/mL
- solubility ([1]; organic solvent or mixture, 2-methyl THF, lyophilized material, ambient to ca. 40° C., read-out: Approximate Solvent Solubility): ≤ 5 mg/mL
- solubility ([1]; organic solvent or mixture, Acetone, lyophilized material, ambient to ca. 40° C., read-out: Approximate Solvent Solubility): ≤ 5 mg/mL
- solubility ([1]; organic solvent or mixture, Acetonitrile, lyophilized material, ambient to ca. 40° C., read-out: Approximate Solvent Solubility): ≤ 5 mg/mL
- solubility ([1]; organic solvent or mixture, Dichloromethane, lyophilized material, ambient to ca. 40° C., read-out: Approximate Solvent Solubility): ≤ 5 mg/mL
- solubility ([1]; organic solvent or mixture, Dimethylsulfoxide, lyophilized material, ambient to ca. 40° C., read-out: Approximate Solvent Solubility): ≤ 5 mg/mL
- solubility ([1]; organic solvent or mixture, Ethanol, lyophilized material, ambient to ca. 40° C., read-out: Approximate Solvent Solubility): ≤ 5 mg/mL
- solubility ([1]; organic solvent or mixture, Ethyl Acetate, lyophilized material, ambient to ca. 40° C., read-out: Approximate Solvent Solubility): ≤ 5 mg/mL
- solubility ([1]; organic solvent or mixture, Isopropyl Acetate, lyophilized material, ambient to ca. 40° C., read-out: Approximate Solvent Solubility): ≤ 5 mg/mL
- solubility ([1]; organic solvent or mixture, Methanol, lyophilized material, ambient to ca. 40° C., read-out: Approximate Solvent Solubility): 20 mg/mL
- solubility ([1]; organic solvent or mixture, Methylethyl Ketone, lyophilized material, ambient to ca. 40° C., read-out: Approximate Solvent Solubility): ≤ 5 mg/mL
- solubility ([1]; organic solvent or mixture, N,N′-Dimethylacetamide, lyophilized material, ambient to ca. 40° C., read-out: Approximate Solvent Solubility): ≤ 5 mg/mL
- solubility ([1]; organic solvent or mixture, N,N′-Dimethylformamide, lyophilized material, ambient to ca. 40° C., read-out: Approximate Solvent Solubility): ≤ 5 mg/mL
- solubility ([1]; organic solvent or mixture, N-Methylpyrrolidone, lyophilized material, ambient to ca. 40° C., read-out: Approximate Solvent Solubility): ≤ 5 mg/mL
- solubility ([1]; organic solvent or mixture, Tetrahydrofuran, lyophilized material, ambient to ca. 40° C., read-out: Approximate Solvent Solubility): ≤ 5 mg/mL
- solubility ([1]; organic solvent or mixture, Toluene, lyophilized material, ambient to ca. 40° C., read-out: Approximate Solvent Solubility): ≤ 5 mg/mL
- solubility ([1]; Water, lyophilized material, ambient to ca. 40° C., read-out: Approximate Solvent Solubility): 50 mg/mL

Structure (SMILES): CC(=O)O.CC(=O)O.N=C(N)c1ccc(OCCCCCOc2ccc(C(=N)N)nc2)cc1 [Form 1, 5-((5-(4-carbamimidoylphenoxy)pentyl)oxy)picolinimidamide diacetate]
- solubility ([2]; pH 7.4 Phosphate Buffer): 0.3 mg/mL
- solubility at 24 h ([2]; water): 49.5 mg/mL
- hygroscopicity by DVS ([3]; DVS, 25° C., diacetate): slightly hygroscopic
- DVS: form post-DVS ([3]; XRPD post-DVS): water) at 90% RH. No change
- form of recovered solid by post-DVS XRPD ([3]; 25° C., diacetate): remained as the received pattern 1; also recorded: No change in form
- DVS ([3]; hygroscopicity / form change during DVS cycle, diacetate): Slightly hygroscopic
- one-week stability: form by XRPD ([4]; 40° C./75% RH): no change in form
- one-week stability: form by XRPD ([4]; 80° C.): no change in form
- one-week stability: form by XRPD [4, 6]: no change in form
- 1 Week Stability ([4]; form by XRPD after storage at 40° C./75% RH, ambient or 80° C.): No change in form by XRPD

Structure (SMILES): CC(=O)O.CC(=O)O.N=C(N)c1ccc(OCCCCCOc2ccc(C(=N)N)nc2)cc1 [Form 3, 5-((5-(4-carbamimidoylphenoxy)pentyl)oxy)picolinimidamide diacetate]
- solubility ([2]; Water): 38.5 mg/mL
- solubility ([2]; pH 7.4 Phosphate Buffer): 0.2 mg/mL
- form of recovered solid by post-DVS XRPD ([3]; 25° C., diacetate): conversion to Form 9
- form conversion during DVS ([3]; at 50% RH, 25° C., diacetate): convert to the hydrated Form 9; also recorded: convert to Form 9 (dihydrate)
- weight loss on form conversion during DVS ([3]; at 50% RH, 25° C., diacetate): approximately 4 wt. %
- one-week stability: form by XRPD ([4]; 40° C./75% RH): convert to Form 1
- one-week stability: form by XRPD ([4]; 80° C.): no change
- one-week stability: form by XRPD [4, 6]: convert to Form 1

Structure (SMILES): CC(=O)O.CC(=O)O.N=C(N)c1ccc(OCCCCCOc2ccc(C(=N)N)nc2)cc1 [Form 2, 5-((5-(4-carbamimidoylphenoxy)pentyl)oxy)picolinimidamide diacetate]
- solubility at 24 h ([2]; phosphate buffer, pH 7.4, aqueous buffer, pH 7.4 Phosphate Buffer): 0.2 mg/mL

Structure (SMILES): CC(=O)O.CC(=O)O.N=C(N)c1ccc(OCCCCCOc2ccc(C(=N)N)nc2)cc1
- XRPD Pattern (2 Days) ([5]; Acetone, 1000 μL, 60° C.): All patterns
- XRPD Pattern (5 Days) ([5]; Acetone, 1000 μL, 60° C.): All patterns
- XRPD Pattern (2 Days) ([5]; Acetone, 2000 μL, Ambient): All patterns
- XRPD Pattern (5 Days) ([5]; Acetone, 2000 μL, Ambient): All patterns
- XRPD Pattern (2 Days) ([5]; DCM, 1000 μL, 60° C.): All patterns
- XRPD Pattern (5 Days) ([5]; DCM, 1000 μL, 60° C.): All patterns
- XRPD Pattern (2 Days) ([5]; DCM, 2000 μL, Ambient): All patterns
- XRPD Pattern (5 Days) ([5]; DCM, 2000 μL, Ambient): All patterns
- XRPD Pattern (2 Days) ([5]; Ethanol, 1000 μL, 60° C.): 8 + 1
- XRPD Pattern (2 Days) ([5]; Ethanol, 2000 μL, Ambient): 8 + 1
- XRPD Pattern (5 Days) ([5]; Ethanol, 2000 μL, Ambient): 6
- XRPD Pattern (2 Days) [5, 7]: All patterns
- XRPD Pattern (5 Days) [5, 7]: All patterns
- XRPD Pattern (2 Days) ([5]; Etyl Acetate, 1000 μL, 60° C.): All patterns
- XRPD Pattern (5 Days) ([5]; Etyl Acetate, 1000 μL, 60° C.): 1 + 8
